Results: patent US12036282B2, “Liposomal system for drug delivery” (NewSouth Innovations PTY Limited, priority 2017, dated 2024)
{FAM} = fluorescein (FAM) label

Experiment: Agarose gel electrophoresis of oligonucleotide after X-ray exposure
Type: physicochemical
Settings: X-ray 1, 2 and 4 Gy, compared with the control
Procedure: The PC12, HCT116 and CCD 841 CoN cells (1-4×10^4/mL) were, respectively, grown on 96-well plates in a culture medium with 10% FBS for 24 hr. For liposome and LipoDox treatment experiments, the PC12 cells and CCD 841 CoN cells were, respectively, incubated with different liposome and LipoDox samples for 4 hours, followed by incubation in a fresh medium for further 24 hours. For the X-ray exposure experiments, all three types of cells were radiated with 4 Gy, followed by incubation in a fresh medium for further 24 and 48 hours. Cell viability was assessed by using the same method as described above. For X-ray treatment of pure DNA molecules and mixture of DNA and verteporfin, 50 μL of antisense oligonucleotide solution (10 μg/mL) and 50 μL of mixture solution (10 μg/mL DNA and 32 μg/mL verteporfin) was respectively exposed to X-ray radiation with different dosage (1, 2 and 4 Gy). After treatment, the gel electrophoresis was carried out in 1.2% agarose gel in Tris-acetate-EDTA (TAE) buffer at 95 V for 45 min. The gel was stained with SYBR Safe DNA Gel Stain (Thermo Fisher) and photographed under UV light using a Bio-Rad imaging system.

5′-TGGTGCTTCCCAGCCACTAT-3′ (SEQ ID NO:1) (3' {FAM}, sugars by position and backbone not given here) [DNA molecules, antisense oligonucleotide against PAC1R gene, 10 μg/mL solution exposed to X-ray]
damage to oligonucleotide after X-ray radiation (gel electrophoresis): did not cause obvious damage
